Experimental data: patent publication US8329859B2, “Peptides that home to tumor lymphatic vasculature and methods of using same” (Sanford-Burnham Medical Research Institute, priority 2001, dated 2012)
Entries after “also recorded” stand apart in the source; their conditions may differ. No end group written: not given here.

Columns and labels:
[1] = test system: normal tissues; experiment: Localization of fluorescent peptide in normal tissues after intravenous injection; format: in vivo, mouse
Procedure: Several normal tissues also were studied for localization of the CGNKRTRGC (SEQ ID NO: 1) peptide.
(§1) Detection of fluorescent peptides and biotin-conjugated tomato lectin was performed as follows. Fluorescein-conjugated peptide CGNKRTRGC (SEQ ID NO: 1) was prepared as described above. The peptide (100 μg in 200 μl of PBS) was injected into the tail vein of mice bearing MDA-MB-435 breast carcinoma tumors. After 10 minutes, biotin-conjugated lycopersicon esculentum (tomato) lectin (100 μg in 200 μl of PBS; Vector; Burlingame, Calif.) was also injected into the tail vein. After 5 minutes, the mouse was perfused through the heart with 4% paraformaldehyde. Tissues were removed and frozen in O.C.T. embedding medium (Tissue-Tek; Torrence, Calif.). Blood vessels were visualized by detecting the tomato lectin with streptavidin-conjugated Alexa 594 (Molecular Probes; Eugene, Oreg.). Green staining indicated the presence of peptide SEQ ID NO: 1, while red staining indicated the presence of tomato lectin.

[2] = test system: MDA-MB-435 human breast carcinoma cell xenografts; experiment: Tumor treatment study; format: in vivo, nude mice; conditions: 67 nmol intravenously twice a week; after about two weeks of treatment; FIG. 8; listed as peptide SEQ ID NO: 1
Procedure: A tumor treatment study was performed using MDA-MB-435 human breast carcinoma cell xenografts prepared by subcutaneously injecting 1×10^6 cells in 200 μl PBS into nude mice. Mice (five per group) were treated intravenously twice a week with 67 nmol CGNKRTRGC peptide (SEQ ID NO: 1) or with PBS starting four weeks after tumor implantation. Tumor volumes were measured once a week for four weeks.

[3] = test system: MDA-MB-435 tumor lymphatic vasculature; experiment: Localization in 435 tumors after tail vein injection, with blood vessel and lymphatic marker staining; format: in vivo, nude mice
Procedure: Localization of phage displaying SEQ ID NO: 1 was analyzed with anti-T7 phage antibody following intravenous injection of CGNKRTRGC (SEQ ID NO: 1)-displaying phage into the tail vein of nude mice carrying an MDA-MB-435 tumor. […] Similar results were obtained by a phage overlay assay in which phage were added onto frozen tissue sections, rather than being injected into the mice.
An anti-T7 antiserum was prepared by immunizing New Zealand white rabbits with 10^10 pfu of T7 nonrecombinant phage (Novagen). The initial immunization performed in complete Freund's Adjuvant, while boosters were administered in incomplete Freund's Adjuvant. The antibody titer was estimated by ELISA, and the antiserum was absorbed against BLT5615 bacterial and mouse liver lysates. Phage were detected using anti-T7 phage antiserum (1:1000 dilution) and goat anti-rabbit secondary antibody conjugated to fluorescein.
as §1
MDA-MB-435 breast carcinoma tumors contain lymphatic vessels that are positive for markers of lymphatic endothelial cells. To determine whether CGNKRTRGC (SEQ ID NO: 1) homed to the 435 tumor lymphatics, tumor sections were stained with the lymphatic markers VEGFR-3 and LYVE-1. Lymphatic vessels were visualized using a rat anti-mouse VEGFR-3 antibody or with rabbit anti-LYVE-1 antibody produced as described below.
LYVE-1 antibody was produced by immunizing New Zealand White rabbits with a peptide encoding the 19 most C-terminal residues of mouse LYVE-1 (Prevo et al., J. Biol. Chem. 276:19420 (2001)) conjugated to keyhole limpet hemocyanin (KLH; Pierce; Iselin, N.J.). The initial immunization was done in complete Freund's Adjuvant, with boosters performed in incomplete Freund's Adjuvant. Specific antibody was obtained following affinity purification with the peptide coupled to Sulfolink Gel (Pierce). Tissues were processed for fifteen minutes following injection with fluorescein-conjugated peptide using rat anti-mouse anti-VEGFR-3, and rabbit anti-LYVE-1. The anti-LYVE-1 antibody was used at a 1:500 dilution on cryo sections, followed by detection with goat anti-rabbit secondary antibody conjugated to Alexa 594 (Molecular Probes).

[4] = test system: primary MDA-MB-435 breast carcinoma tumor cell suspensions; experiment: Ex vivo phage binding to primary 435 tumor cell suspensions; set-up: species or system human; conditions: synthetic peptide added
Procedure: Selected phage were enriched 30-fold relative to nonrecombinant T7 phage in the tumor. Forty-eight individual clones were randomly chosen from the in vivo selected pool, and the inserts sequenced as described below. Individual clones were assayed for the ability to bind cultured 435 cells as well as cell suspensions prepared from 435 tumors.
Xenografts, tumor cell suspensions and ex vivo selections were performed essentially as follows. Nude Balb/c mice were subcutaneously injected with 1×10^6 MDA-MB-435 tumor cells to generate breast carcinoma xenografts. Human MDA-MB-435 breast carcinoma xenograft tumors were harvested 9 to 12 weeks after implantation, and tumor cell suspensions prepared using collagenase (0.5 mg/ml, Sigma).
The suspension was subjected to serial washes with 1% BSA in DME to remove unbound phage. Blood vessel endothelial cells were depleted from the tumor cell mixture using magnetic beads (Dynal; Lake Success, N.Y.) coated with anti-mouse CD31 antibody (MEC 13.3; Pharminogen; San Diego, Calif.) according to the manufacturer's instructions. Phage bound to the CD31-negative cell population were rescued by adding bacteria, and the rescued phage titered and amplified in liquid culture.

[5] = test system: Cultured MDA-MB-435 cells; experiment: Trypan blue cytotoxicity in cultured MDA-MB-435 cells; format: cell-based; conditions: FIG. 7
Procedure: Cultured MDA-MB-435 cells were incubated with a control peptide (CGEKRTRGC; SEQ ID NO: 3) or with CGNKRTRGC (SEQ ID NO: 1) at 37° C. for 1, 2 or 4 hours. After staining with trypan blue, which is taken up by cells that are dead or dying, the total number of cells were counted, and the percentage of trypan blue stained cells determined. […] In particular, after four hours incubation, at least 7-fold greater trypan blue uptake was evident in cell cultures incubated with peptide SEQ ID NO: 1 as compared to cultures incubated with control peptide.

[6] = test system: mitochondrial membranes; conditions: 10 μM; cited from earlier work
[7] = test system: cultured KRIB cells; experiment: Phage binding and peptide internalization in cultured KRIB cells; format: cell-based
[8] = test system: cultured MDA-MB-435 tumor cells; experiment: Internalization and subcellular localization in cultured MDA-MB-435 cells; format: cell-based, human; conditions: one to five hours at 37° C., FIG. 2
Procedure: A fluorescein-conjugated CGNKRTRGC (SEQ ID NO: 1) peptide was utilized to further analyze cellular internalization and subcellular localization. […] Natl. Acad. Sci. 97:13003 (2000). The fluorescein-conjugated peptides were incubated with cultured MDA-MB-435 tumor cells for one to five hours at 37° C. […] Cultured 435 cells also internalized the CGNKRTRGC (SEQ ID NO: 1) phage, although the phage accumulated in the cytoplasm of the cells.

Row | Substance | localization in normal tissues [1] | mean tumor volume compared to mice administered PBS alone [2] | co-localization with macrophage marker F4/80 ([3]; VEGFR-3 positive single cells in tumor) | localization within 435 tumors after tail vein injection ([3]; mouse, in vivo) | inhibition of binding of CGNKRTRGC phage by synthetic peptide [4] | trypan blue uptake relative to cultures incubated with control peptide ([5]; four hours incubation, 37° C.) | cytotoxic effect compared to control peptide SEQ ID NO: 3 ([5]; later time points of 1, 2 or 4 hours, listed as peptide SEQ ID NO: 1) | mitochondrial swelling [6] | internalization of fluorescein-labeled peptide by cultured KRIB cells [7] | co-localization with lymphatic markers VEGFR-3 and LYVE-1 ([3]; 435 tumor tissue, FIG. 5) | internalization and nuclear transport in vivo ([3]; 435 tumor tissue, FIG. 5) | internalization and nuclear transport in vivo ([3]; 435 tumor tissue, FIG. 5, listed as fluorescein-conjugated SEQ ID NO:1) | internalization and nuclear transport in vivo ([3]; 435 tumor tissue, FIG. 5, listed as fluorescein-conjugated peptide (SEQ ID NO: 1)) | co-localization with blood vessels labeled with biotin-conjugated tomato lectin ([3]; FIGS. 3A-C) | blood vessel markers Meca-32 and CD31 on the vessels in which the substance localized ([3]; mouse, in vivo) | uptake and subcellular localization of fluorescein-conjugated peptide ([8]; listed as fluorescein-conjugated SEQ ID NO: 1) | uptake and subcellular localization of fluorescein-conjugated peptide ([8]; listed as fluorescein-labeled peptide SEQ ID NO: 1)
1 | CGNKRTRGC [CGNKRTRGC (SEQ ID NO: 1) peptide] | Fluorescence was seen only in the kidney tubuli | at least several fold less; also recorded: slowed significantly | lack of co-localization | accumulated in VEGFR-3 positive single cells within the tumor | inhibited binding | at least 7 fold | significantly enhanced cytotoxic effect; also recorded: significantly enhanced cytotoxicity |  |  |  |  |  |  |  |  |  | 
2 | D(KLAKLAK)2 |  |  |  |  |  |  |  | marked mitochondrial swelling |  |  |  |  |  |  |  |  | 
3 | fluorescein-conjugated CGNKRTRGC (SEQ ID NO: 1) peptide: fluorescein-conjugated CGNKRTRGC peptide (cysteine pairing not given here; also: fluorescein conjugate, site not given here) |  |  |  | localized in vessel-like structures and in individual cells within the tumor |  |  |  |  | internalized | co-localized | internalized and transported into nuclei | internalized and transported into nuclei | accumulated in the nuclei lining the vessel-like structures | notable lack of co-localization | negative | internalized and translocated to the nucleus | internalized
